The record followed here is ChEMBL document CHEMBL5346969 (J Med Chem, 2023).

The subject of data set [1] is K562. In words: Antiproliferative activity against human K562 cells assessed as inhibition of cell viability at 1 uM incubated for 72 hrs by MTT assay. In kind it is functional, cell-based. A general note: Tetrazolium assays rely on reduction of a dye to a coloured formazan, in cell work by metabolically active cells.
The subject of data set [2] is MDA-MB-231. As to the kind of experiment: Induction of ferroptosis in human MDA-MB-231 cells assessed as cell viability at 1 uM incubated for 72 hrs in presence of glutathione by MTT assay. Type of data set: functional, cell-based.
Data set [3] has as its system MDA-MB-231. In words: Induction of ferroptosis in human MDA-MB-231 cells assessed as cell viability incubated for 72 hrs in presence of necrosis inhibitor, necrostatin-1 by MTT assay. Particulars: MDA-MB-231, 72 h. Type of data set: functional, cell-based.
For data set [4], the system named is MDA-MB-231. As to the kind of experiment: Induction of ferroptosis in human MDA-MB-231 cells assessed as cell viability incubated for 72 hrs in presence of deferoxamine by MTT assay. Particulars: MDA-MB-231, 72 h. In kind it is functional, cell-based.
The test system of data set [5] is MDA-MB-231. As to the kind of experiment: Induction of ferroptosis in human MDA-MB-231 cells assessed as increase in intracellular lipid peroxidase by measuring increase in green fluorescence intensity at 5 to 20 nM incubated for 8 hrs by C11-BODIPY-581/591 staining based confocal laser microscopy. Type of data set: functional, cell-based. Particulars: dose 5-20 nM.

For data set [6], the system named is MDA-MB-231. In words: Induction of ferroptosis in human MDA-MB-231 cells assessed as increase in intracellular ROS accumulation by measuring green fluorescence intensity at 20 nM incubated for 8 hrs in presence of ferroptosis inhibitor, ferrostatin-1 by DCFH-DA staining based confocal laser microscopy. In kind it is functional, cell-based.
Data set [7] deals with MDA-MB-231. As to the kind of experiment: Induction of ferroptosis-mediated morphological changes in human MDA-MB-231 cells assessed as round and vacuolated cells at 20 nM incubated for 6 hrs by TEM analysis. In kind it is functional, cell-based.
The target in data set [8] is T1, Phospholipid hydroperoxide glutathione peroxidase GPX4 (Homo sapiens) (UniProt P36969).
T1 sequence (whole entry): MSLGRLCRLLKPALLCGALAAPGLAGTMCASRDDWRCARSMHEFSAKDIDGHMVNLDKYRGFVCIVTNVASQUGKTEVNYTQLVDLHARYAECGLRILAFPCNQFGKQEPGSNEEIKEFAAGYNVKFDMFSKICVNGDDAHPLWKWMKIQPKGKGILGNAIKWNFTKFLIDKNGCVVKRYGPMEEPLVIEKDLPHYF
In words: Binding affinity to GPX4 (unknown origin) at Cys66 residue assessed as change in mass of single charged y4+ ion at 100 uM incubated for 1.5 hrs by SDS-PAGE based LC-MS/MS analysis.

The target in data set [9] is T1, Phospholipid hydroperoxide glutathione peroxidase GPX4 (Homo sapiens). In words: Binding affinity to GPX4 (unknown origin) at Cys66 residue assessed as change in mass of single charged b4+ ion at 100 uM incubated for 1.5 hrs by SDS-PAGE based LC-MS/MS analysis.
Data set [10] shares this target. As to the kind of experiment: Binding affinity to GPX4 (unknown origin) at Cys66 residue assessed as change in mass of single charged y2+ ion at 100 uM incubated for 1.5 hrs by SDS-PAGE based LC-MS/MS analysis.
Data set [11] has the same target. In words: Binding affinity to GPX4 (unknown origin) at Cys66 residue assessed as change in mass of single charged y5+ ion at 100 uM incubated for 1.5 hrs by SDS-PAGE based LC-MS/MS analysis.
Data set [12] has as its system MDA-MB-231. In words: Induction of ferroptosis in siRNA mediated GPX4 knockdown human MDA-MB-231 cells with assessed as intracellular lipid peroxidase at 20 nM incubated for 8 hrs by C11-BODIPY-581/591 staining based confocal laser microscopy. Type of data set: functional, cell-based.
In data set [13] the test system is MDA-MB-231. In words: Induction of ferroptosis in siRNA mediated GPX4 knockdown human MDA-MB-231 cells with assessed as change in FTH1 protein expression level at 20 nM incubated for 8 hrs by Western blot analysis. Type of data set: functional, cell-based. In general terms: Immunoblotting shows a protein as a band on a membrane.
In data set [14] the test system is MDA-MB-231. As to the kind of experiment: Induction of ferroptosis in siRNA mediated GPX4 knockdown human MDA-MB-231 cells with assessed as change in xCT protein expression level at 20 nM incubated for 8 hrs by Western blot analysis. Type of data set: functional, cell-based.
Data set [15] has as its system MDA-MB-231. As to the kind of experiment: Induction of ferroptosis in siRNA mediated GPX4 knockdown human MDA-MB-231 cells with assessed as change in ACSL4 protein expression level at 20 nM incubated for 8 hrs by Western blot analysis. Type of data set: functional, cell-based.
The nature of data set [16]: Toxicity in immunodeficient BALB/c mouse assessed as change in ALT level at 20 mg/kg, ip for 14 days by biochemical analysis. In kind it is organism-based. Particulars: in vivo, 336 h, time 14 day.
In data set [17] the test system is MDA-MB-231. In words: Induction of ferroptosis in human MDA-MB-231 cells with assessed as decrease in FTH1 protein expression level at 5 to 20 nM incubated for 8 hrs by Western blot analysis. In kind it is functional, cell-based. Particulars: dose 5-20 nM.
Data set [18] relates to MDA-MB-231. In words: Induction of ferroptosis in human MDA-MB-231 cells with assessed as change in GPX4 protein expression level at 5 to 20 nM incubated for 8 hrs in presence of ferroptosis inhibitor, ferrostatin-1 by Western blot analysis. Type of data set: functional, cell-based. Particulars: dose 5-20 nM.
The subject of data set [19] is MDA-MB-231. As to the kind of experiment: Induction of ferroptosis in human MDA-MB-231 cells with assessed as upregulation of GPX4 protein expression level at 5 to 20 nM incubated for <6 hrs by Western blot analysis. Particulars: dose 5-20 nM. In kind it is functional, cell-based.
Data set [20] has as its system MDA-MB-231. As to the kind of experiment: Induction of ferroptosis in human MDA-MB-231 cells with assessed as reduction in cell viability at 5 to 20 nM incubated for 4 to 10 hrs by MTT assay. Particulars: dose 5-20 nM, time 4-10 hrs. In kind it is functional, cell-based.
Data set [21] can be described thus: Toxicity in immunodeficient BALB/c mouse xenografted with human MDA-MB-231 cells assessed as morphological changes in heart at 20 mg/kg, ip for 21 days by H and E staining based microscopy. In kind it is organism-based. Particulars: in vivo, 504 h, time 21 day.
Data set [22] deals with MDA-MB-231. In words: Induction of ferroptosis-mediated antitumor activity against human MDA-MB-231 cells xenografted in immunodeficient BALB/C mouse assessed as reduction in GPX4 level in tumor tissue at 5 to 20 mg/kg,ip for 21 days by Western blot analysis. In kind it is functional, organism-based. Particulars: dose 5-20 mg/kg, time 21.0 day.
Data set [23] deals with MDA-MB-231. As to the kind of experiment: Antitumor activity against human MDA-MB-231 cells xenografted in immunodeficient BALB/c mouse assessed as inhibition of tumor cell proliferation at 20 mg/kg,ip for 21 days consecutively every day by Ki67 staining based immunohistochemical analysis. In kind it is functional, organism-based. Particulars: time 21.0 day. A general note: A xenograft is tissue or cells of one species grown in another, often human tumour cells in immunodeficient mice.

Data set [24] in a line: Metabolic stability in human liver microsomes assessed as intrinsic clearance at 1 uM incubated upto 60 mins in presence of NADPH by LC-MS/MS analysis. Type of data set: ADME, Microsome. Particulars: read-out: CLH.
Data set [25] in a line: Metabolic stability in rat plasma at 1 uM and measured upto 24 hrs by LC-MS/MS analysis. Type of data set: ADME, cell-free.
Data set [26] in a line: Half life in rat at 10 mg/kg, ip and measured upto 24 hrs by LC-MS/MS analysis. Type of data set: ADME, organism-based. Particulars: in vivo.
The nature of data set [27]: Cmax in rat at 10 mg/kg, ip and measured upto 24 hrs by LC-MS/MS analysis. In kind it is ADME, organism-based. Set-up: time < 24 hrs, dose 10 mg/kg, route ip. Particulars: in vivo.
Data set [28] in a line: Clearance in rat at 10 mg/kg, ip and measured upto 24 hrs by LC-MS/MS analysis. In kind it is ADME, organism-based. Particulars: in vivo.
The nature of data set [29]: Toxicity in immunodeficient BALB/c mouse assessed as bone marrow suppression by measuring WBC level at 20 mg/kg, ip for 14 days by whole blood analysis. Particulars: in vivo, 336 h, time 14 day. Type of data set: organism-based.
Data set [30] is described as follows: Toxicity in immunodeficient BALB/c mouse assessed as bone marrow suppression by measuring RBC level at 20 mg/kg, ip for 14 days by whole blood analysis. Particulars: in vivo, 336 h, time 14 day. In kind it is organism-based, Erythrocyte.
Data set [31] in a line: Toxicity in immunodeficient BALB/c mouse assessed as bone marrow suppression by measuring HGB level at 20 mg/kg, ip for 14 days by whole blood analysis. Type of data set: organism-based. Particulars: in vivo, 336 h, time 14 day.

Calls of active or inactive are those of the source. The rule behind the calls is not given here.

The IC50 is the concentration needed to halve the response being measured. The Cmax is the maximum level reached in the sampled fluid or tissue. Consider `COc1cc(N(C(=O)CCl)c2ccc3c(c2)OCCO3)cc(OC)c1F`, for which the outcome in data set [1], in data set [6], in data set [8], in [9], in [10] and in data set [11] was inactive. In addition, the outcome in data set [13], in [14], in data set [15] and in data set [18] was inactive. For the same compound, the outcome in [2], in data set [7], in [12], in data set [17], in data set [19] and in [22] was Active. In addition, the outcome in data set [23] was Active. The 50% inhibitory concentration (IC50) in data set [3] was 22 nM; in [4] it was 2570 nM. Further, the Activity result in data set [5] is “Dose-Dependent Effect”; in data set [16], “Toxic”; in data set [20] it was “Dose-Dependent Effect”; in data set [21], “Non-Toxic”. In [24], the microsomal CLint at 1 µM came to 416 µL/min/mg. Further, the Stability result in data set [25] is “Stable”. Further, the t1/2 in data set [26] turned out to be 1.9 h. This compound showed a Cmax in data set [27] of 5205 ng/mL. Further, the CL in data set [28] came out at 13.8 mL/min/kg.

As to `COc1cc(N(C(=O)CBr)c2ccc3c(c2)OCCO3)cc(OC)c1F`, the result in data set [1], in data set [6] and in data set [18] was inactive. The outcome in data set [2], in data set [7], in data set [17], in data set [22] and in [23] was Active. The figures for the IC50 in [3] and in data set [4] were 25 nM and 1850 nM, respectively. For the same compound, the Activity result in data set [5] was “Dose-Dependent Effect”; in data set [16], “Toxic”; in data set [21], “Non-Toxic”; in [29] it was “Toxic”; in [30] it was “Toxic”; in data set [31] it was “Toxic”. In addition, in [24], the microsomal CLint at 1 µM was found to be 1740 µL/min/mg. Besides, the Stability entry in data set [25] is reported as “Stable”.
